In experiment [1] the target is 5-hydroxytryptamine receptor 2A (Rattus norvegicus, UniProt P14842).
In experiment [2] the target is T1, 5-hydroxytryptamine receptor 1A (Rattus norvegicus, UniProt P19327).
T1 sequence (P19327 whole entry): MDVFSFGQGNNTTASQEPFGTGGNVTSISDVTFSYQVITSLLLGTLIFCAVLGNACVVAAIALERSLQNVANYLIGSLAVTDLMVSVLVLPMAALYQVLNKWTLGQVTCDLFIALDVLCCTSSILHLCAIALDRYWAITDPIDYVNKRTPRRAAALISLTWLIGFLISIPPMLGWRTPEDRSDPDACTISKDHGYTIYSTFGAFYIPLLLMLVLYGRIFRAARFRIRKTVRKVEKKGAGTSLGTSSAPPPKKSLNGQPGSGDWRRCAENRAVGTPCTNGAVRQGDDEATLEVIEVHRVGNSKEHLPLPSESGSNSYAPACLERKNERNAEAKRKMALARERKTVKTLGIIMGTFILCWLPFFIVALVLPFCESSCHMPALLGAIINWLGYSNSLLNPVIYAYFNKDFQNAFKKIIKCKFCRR

For a further experiment, the target named is D(2) dopamine receptor (Rattus norvegicus, UniProt P61169).
Chain of D(2) dopamine receptor (P61169 whole entry): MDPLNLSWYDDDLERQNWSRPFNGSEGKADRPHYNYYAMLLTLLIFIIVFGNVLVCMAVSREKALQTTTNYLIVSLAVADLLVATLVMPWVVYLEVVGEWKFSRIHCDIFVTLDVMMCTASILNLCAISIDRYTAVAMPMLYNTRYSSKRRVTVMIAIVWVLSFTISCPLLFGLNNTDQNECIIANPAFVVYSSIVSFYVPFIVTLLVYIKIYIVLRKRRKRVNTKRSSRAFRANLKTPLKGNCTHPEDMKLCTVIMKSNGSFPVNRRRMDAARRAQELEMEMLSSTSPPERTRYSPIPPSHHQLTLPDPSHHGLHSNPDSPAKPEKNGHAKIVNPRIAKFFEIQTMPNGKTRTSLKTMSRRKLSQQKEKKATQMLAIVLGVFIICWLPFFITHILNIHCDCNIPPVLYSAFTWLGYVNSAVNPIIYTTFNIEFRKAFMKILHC
The target in experiment [3] is T2, Alpha-1A adrenergic receptor (Rattus norvegicus, UniProt P43140).
T2 sequence (P43140 whole entry): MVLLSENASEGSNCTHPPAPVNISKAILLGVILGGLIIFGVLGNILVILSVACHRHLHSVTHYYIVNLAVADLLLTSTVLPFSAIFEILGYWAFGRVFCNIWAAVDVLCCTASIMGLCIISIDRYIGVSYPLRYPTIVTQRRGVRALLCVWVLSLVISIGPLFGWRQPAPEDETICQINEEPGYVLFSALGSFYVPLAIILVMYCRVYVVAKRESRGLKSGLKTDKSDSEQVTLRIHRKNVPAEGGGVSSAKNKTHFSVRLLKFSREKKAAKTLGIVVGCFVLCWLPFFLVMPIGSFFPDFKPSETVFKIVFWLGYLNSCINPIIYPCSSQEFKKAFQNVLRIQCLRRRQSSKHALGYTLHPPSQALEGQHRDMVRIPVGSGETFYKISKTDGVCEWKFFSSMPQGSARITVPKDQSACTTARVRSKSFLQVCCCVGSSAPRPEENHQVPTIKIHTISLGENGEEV

Experiment [4] concerns the target T3, Alpha-2C adrenergic receptor (Rattus norvegicus, UniProt P22086).
T3 sequence (P22086 whole entry): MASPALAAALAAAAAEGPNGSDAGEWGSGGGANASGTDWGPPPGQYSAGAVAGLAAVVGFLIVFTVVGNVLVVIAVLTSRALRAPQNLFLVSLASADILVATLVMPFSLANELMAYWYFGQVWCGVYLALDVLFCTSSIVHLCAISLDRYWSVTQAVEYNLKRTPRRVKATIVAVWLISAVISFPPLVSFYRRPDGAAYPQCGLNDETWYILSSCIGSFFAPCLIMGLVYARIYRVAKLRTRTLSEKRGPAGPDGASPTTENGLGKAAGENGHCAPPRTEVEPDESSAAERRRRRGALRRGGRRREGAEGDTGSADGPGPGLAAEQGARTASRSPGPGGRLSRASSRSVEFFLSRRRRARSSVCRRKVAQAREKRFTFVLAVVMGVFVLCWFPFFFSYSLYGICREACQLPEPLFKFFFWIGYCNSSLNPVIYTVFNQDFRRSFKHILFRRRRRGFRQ

Experiment [5] concerns the target T4, Muscarinic acetylcholine receptor M2 (Rattus norvegicus, UniProt P10980).
T4 sequence (P10980 whole entry): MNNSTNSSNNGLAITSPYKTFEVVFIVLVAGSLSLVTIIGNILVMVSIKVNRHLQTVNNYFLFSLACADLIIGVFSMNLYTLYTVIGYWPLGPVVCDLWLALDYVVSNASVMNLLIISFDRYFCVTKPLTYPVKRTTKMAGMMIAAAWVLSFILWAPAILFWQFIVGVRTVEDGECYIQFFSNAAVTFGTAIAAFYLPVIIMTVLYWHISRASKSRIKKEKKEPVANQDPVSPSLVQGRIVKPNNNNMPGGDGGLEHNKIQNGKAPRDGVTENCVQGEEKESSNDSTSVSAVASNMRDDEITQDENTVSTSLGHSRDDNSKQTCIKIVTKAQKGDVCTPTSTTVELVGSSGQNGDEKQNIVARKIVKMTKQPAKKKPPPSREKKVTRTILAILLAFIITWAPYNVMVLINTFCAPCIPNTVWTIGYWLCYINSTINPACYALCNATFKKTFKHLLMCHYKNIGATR

Chain of 5-hydroxytryptamine receptor 2A (P14842 whole entry): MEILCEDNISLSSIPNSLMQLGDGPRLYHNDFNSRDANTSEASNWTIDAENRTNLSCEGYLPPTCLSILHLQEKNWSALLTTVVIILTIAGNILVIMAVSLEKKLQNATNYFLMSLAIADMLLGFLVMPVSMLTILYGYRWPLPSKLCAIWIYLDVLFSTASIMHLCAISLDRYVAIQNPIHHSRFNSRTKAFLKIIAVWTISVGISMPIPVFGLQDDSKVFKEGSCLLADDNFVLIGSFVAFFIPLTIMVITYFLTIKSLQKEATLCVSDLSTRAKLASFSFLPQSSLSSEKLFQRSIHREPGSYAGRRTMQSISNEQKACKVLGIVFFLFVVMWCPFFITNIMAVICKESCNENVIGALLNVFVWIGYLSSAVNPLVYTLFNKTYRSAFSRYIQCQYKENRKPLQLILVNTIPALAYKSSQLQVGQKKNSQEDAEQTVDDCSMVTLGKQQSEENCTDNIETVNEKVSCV

As a reminder, the Ki is a measure of affinity in units of concentration, obtained from inhibition or displacement. A higher Ki goes with a looser hold on the target. For `Fc1ccc(N2CCN(CCC3OCCc4ccccc43)CC2)cc1` (stereo unspecified) [CAS_170856-41-4], the Ki in experiment [1] is 5.8 nM; in experiment [2], 134 nM; on D(2) dopamine receptor it was 199 nM; in experiment [3], 38 nM; in experiment [4], 181 nM; in experiment [5], 678 nM.

Source of the values: BindingDB's records for PubMed 9103528 (Pharmacia & Upjohn, 1997).
